# Reference: US4450149A, “Radiohalogenation method” (Research Corporation, priority 1981, dated 1984)
# Read-outs that look alike come from different tables or passages of the source.
# Key:
# [1] = Tissue distribution study of radioiodinated fatty acid, 5 min post intravenous injection; format: in vivo, female Sp-raque-Dawley rats; details: 5 min post injection, approximately 25 μCi, Prepared Via Present Method, average of 5 rats (standard deviation)
# Protocol: Tissue Distribution Study The radioiodinated 19-^125 I-iodononadecanoicacid was evaluated in female Sp-raque-Dawley rats weighing 250-350 g. The rats were given food and water ad libidum. For the tissue distribution study, approximately 25 μCi of the fatty acid in a physiological formulation (EtOH/Tween 80/0.9% saline: 2.5 ml/0.65 ml/22 ml) was administered intraveneously to ether anesthetized rats. Five animals were sacrificed at 5 min post injection. Representative 50-100 mg samples of heart, liver, lung, blood, and muscle were removed and cleaned of fat and connective tissue. Samples were counted in an auto-gamma scintillation counter and values corrected for radioactive decay, counting efficiency and background. The resulting tissue concentration values were normalized to a per kilogram body weight and are reported in % kg dose/g. as shown in Table 8.
# [2] = reported in J. Nucl. Med., 22:0000, 1981; average of 5 rats (standard deviation); cited from earlier work
structure (smiles),measurement,setting,value
O=C(O)CCCCCCCCCCCCCCCCCC[125I] [19-^125 I--iodononadecanoic acid],"tissue concentration, Blood",[1],0.13 ± 0.00 % kg dose/g
same,"tissue concentration, Heart",[1],0.71 ± 0.01 % kg dose/g
same,"tissue concentration, Liver",[1],0.47 ± 0.03 % kg dose/g
same,"tissue concentration, Lung",[1],0.24 ± 0.02 % kg dose/g
same,"tissue concentration, Muscle",[1],0.14 ± 0.00 % kg dose/g
same,"tissue concentration, Blood",[2],0.15 ± 0.01 % kg dose/g
same,"tissue concentration, Heart",[2],0.88 ± 0.23 % kg dose/g
same,"tissue concentration, Liver",[2],0.53 ± 0.02 % kg dose/g
same,"tissue concentration, Lung",[2],0.28 ± 0.04 % kg dose/g
same,"tissue concentration, Muscle",[2],0.19 ± 0.00 % kg dose/g
